Where two headings read alike, the source gives them in different places.
Legend:
ROCK2 = ROCK2 (Homo sapiens (Human), UniProt O75116); assay: ROCK2 kinase inhibition assay (peptide phosphorylation, LABCHIP 3000); format: biochemical; conditions: 7 μM ATP, 2.5 nM ROCK2, 3 hours at 25° C.
Procedure: (§1) The peptide is phosphorylated by the protein kinase ROCK1 or ROCK2. The ROCK1 or ROCK2 enzyme, substrate, and cofactors (ATP and Mg^2+) are combined in a well of a microtiter plate and incubated for 3 hours at 25° C. in the presence or absence of an inhibitor compound. At the end of the incubation, the reaction is quenched by the addition of an EDTA-containing buffer. The substrate and product are separated and quantified electrophoretically using the microfluidic-based LABCHIP® 3000 Drug Discovery System from Caliper Life Sciences (Hopkinton, Mass.).
(§2) The components of the assay mixture are:
10 μM Sodium Orthovanadate
10 LM Beta-Glycerophosphate
(§3) 5 μM ATP (for ROCK1) or 7 μM ATP (for ROCK2)
3 nM ROCK1 or 2.5 nM ROCK2 enzyme
(§4) Substrate and product peptides present in each sample are separated electrophoretically using the LABCHIP® 3000 capillary electrophoresis instrument. […] Change in the relative fluorescence intensity of the substrate and product peaks is the parameter measured reflecting enzyme activity. Capillary electrophoregramms (RDA acquisition files) are analyzed using HTS Well Analyzer software (Caliper Life Sciences, Hopkinton, Mass.). The kinase activity in each sample is determined as the product to sum ratio (PSR): P/(S+P), where P is the peak height of the product peptide and S is the peak height of the substrate peptide. For each compound, enzyme activity is measured at various concentrations (12 concentrations of compound spaced by 3× dilution intervals). Negative control samples (0%-inhibition in the absence of inhibitor) and positive control samples (100%-inhibition in the presence of 20 mM EDTA) are assembled in replicates of four and are used to calculate %-inhibition values for each compound at each concentration. Percent inhibition (Pinh) is determined using the following equation: Pinh=(PSRO %−PSRinh)/(PSRO %−PSR100%)*100
(§5) where PSRinh is the product sum ratio in the presence of inhibitor, PSRO % is the average product sum ratio in the absence of inhibitor, and PSR100% is the average product sum ratio in 100%-inhibition control samples. The IC50 values of inhibitors are determined by fitting the inhibition curves (Pinh versus inhibitor concentration) by the 4-parameter sigmoidal dose-response model using XLfit 4 software (IBDS).

ROCK1 = ROCK1 (Homo sapiens (Human), UniProt Q13464); assay: ROCK1 kinase inhibition assay (peptide phosphorylation, LABCHIP 3000); format: biochemical; conditions: 5 μM ATP, 3 nM ROCK1, 3 hours at 25° C.
Procedure: as §1, §2
10 μM Sodium Orthovanadate
10 LM Beta-Glycerophosphate
as §3
3 nM ROCK1 or 2.5 nM ROCK2 enzyme
as §4, §5

MV411 cell line = assay: Cell viability assay ([…]-GLO), MV411; format: cell-based; conditions: for IC50: Homo sapiens, MV4-11, MV411 (ITD-FLT3+), 72 hours treatment; for FLT3-ITD+ Selectivity (K562/MV411): ratio K562/MV411
Procedure: Cell viability in the presence of varying concentrations of the above listed compounds at different time points was used to assess cytotoxicity and the effect of the compounds on cell proliferation.
Cell viability was measured by the […] -GlO® cell viability assay from Promega (Madison, Wis.). The […] -GlO Luminescent Cell Viability Assay is a homogeneous method to determine the number of viable cells in culture based on quantitation of the ATP present, which signals the presence of metabolically active cells. Following treatment, […] -GlO® is added to treatment wells and incubated at 37° C. Luminescence values were measured at using a Molecular Devices Spectramax microplate reader.
Cells were grown to 70% confluency, trypsinized, counted, and seeded in 96 well flat-bottom plates at a final concentration of 2.5×10^3-5×10^3 cells/well (Day 0). Cells were allowed to incubate in growth media for 24 hours. Treatment with the test agents or standard agents began on Day 1 and continued for 72 hours. At the 72-hour time point, treatment containing media was removed.
For single agent and combination studies, data from each experiment was collected and expressed as % Cell Growth using the following calculation: % Cell Growth=(ftest/fvehicle)×100
Where ftest is the luminescence of the tested sample, and fvehicle is the luminescence of the vehicle in which the drug is dissolved. Dose response graphs and IC50 values were generated using Prism 6 software (GraphPad) using the following equation: Y=(Top−Bottom)/(1+10^((logIC50-X)−HillSlope))
Where X is the logarithm of the concentration and Y is the response. Y starts at the Bottom and goes to the Top with a sigmoid shape.
The experiments also evaluated the selectivity of the compounds for inhibiting growth of cancer cells carrying a mutation in the Flt3 gene. The MV411 cell line expresses the mutant allele of Flt3 with internal tandem duplications (ITD) of the gene.

K562 cell line = assay: Cell viability assay ([…]-GLO), K562; format: cell-based; conditions: Homo sapiens; K562 (does not express ITD-FLT3), 72 hours treatment
Method in brief: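 Cells seeded 2.5×10^3-5×10^3/well, grown 24 h, then exposed to compounds for 72 h. Viability read as ATP luminescence (CellTiter-Glo-type) after 37° C incubation; % growth = test/vehicle ×100. IC50 from sigmoidal dose-response fit.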

[1] = Pharmacokinetic activity in mice; format: in vivo; conditions: for AUC(0-t): read-out: AUC0-8
Procedure: Compounds were individually and accurately weighed out to produce a stock solution in Dimethyl-sulfoxide (DMSO) at a concentration of 2 mg/mL and stored at −20° C. From the stock solution, a working stock was prepared by diluting it in Methanol-Water 50:50 (v/v) at 20 μg/mL for calibration curve preparation and stored at 4° C. Standards used for quantitation and quality control samples (QCs) were prepared on the same day of sample processing using blank plasma obtained from non-treated mice. For each analyte, standards were prepared through serial dilutions of the working stock at concentrations of 0.1, 0.5, 1.0, 10, 50, 100, 500, and 1000 ng/mL; QCs were prepared at intermediate concentrations of 0.75, 7.5, 75, and 750 ng/mL. Plasma samples were stored at −80° C. until ready for analysis and then placed on ice for thawing. An aliquot of […] samples, standards, or QCs, were transferred into a 96-well extraction plate according to a pre-defined layout. An appropriate volume of Methanol-Formic Acid 99.9-0.1 containing internal standard (Verapamil at 25 ng/mL) was added to each well and the samples were extracted under vacuum. Eluent was then transferred into a LCMS plate for analysis using a suitable column for separation and MRM detection. Concentration of analytes was calculated based on the calibration curve and analyzed for pharmacokinetic parameters by using Non-compartmental analysis (NCA). Parameters such as Cmax, Tmax, half-life, AUC(0-last), AUC(0-∞), volume of distribution (Vss), and clearance (Cl/F) were reported.

Sequence of ROCK1 (Q13464 whole entry, species assumed): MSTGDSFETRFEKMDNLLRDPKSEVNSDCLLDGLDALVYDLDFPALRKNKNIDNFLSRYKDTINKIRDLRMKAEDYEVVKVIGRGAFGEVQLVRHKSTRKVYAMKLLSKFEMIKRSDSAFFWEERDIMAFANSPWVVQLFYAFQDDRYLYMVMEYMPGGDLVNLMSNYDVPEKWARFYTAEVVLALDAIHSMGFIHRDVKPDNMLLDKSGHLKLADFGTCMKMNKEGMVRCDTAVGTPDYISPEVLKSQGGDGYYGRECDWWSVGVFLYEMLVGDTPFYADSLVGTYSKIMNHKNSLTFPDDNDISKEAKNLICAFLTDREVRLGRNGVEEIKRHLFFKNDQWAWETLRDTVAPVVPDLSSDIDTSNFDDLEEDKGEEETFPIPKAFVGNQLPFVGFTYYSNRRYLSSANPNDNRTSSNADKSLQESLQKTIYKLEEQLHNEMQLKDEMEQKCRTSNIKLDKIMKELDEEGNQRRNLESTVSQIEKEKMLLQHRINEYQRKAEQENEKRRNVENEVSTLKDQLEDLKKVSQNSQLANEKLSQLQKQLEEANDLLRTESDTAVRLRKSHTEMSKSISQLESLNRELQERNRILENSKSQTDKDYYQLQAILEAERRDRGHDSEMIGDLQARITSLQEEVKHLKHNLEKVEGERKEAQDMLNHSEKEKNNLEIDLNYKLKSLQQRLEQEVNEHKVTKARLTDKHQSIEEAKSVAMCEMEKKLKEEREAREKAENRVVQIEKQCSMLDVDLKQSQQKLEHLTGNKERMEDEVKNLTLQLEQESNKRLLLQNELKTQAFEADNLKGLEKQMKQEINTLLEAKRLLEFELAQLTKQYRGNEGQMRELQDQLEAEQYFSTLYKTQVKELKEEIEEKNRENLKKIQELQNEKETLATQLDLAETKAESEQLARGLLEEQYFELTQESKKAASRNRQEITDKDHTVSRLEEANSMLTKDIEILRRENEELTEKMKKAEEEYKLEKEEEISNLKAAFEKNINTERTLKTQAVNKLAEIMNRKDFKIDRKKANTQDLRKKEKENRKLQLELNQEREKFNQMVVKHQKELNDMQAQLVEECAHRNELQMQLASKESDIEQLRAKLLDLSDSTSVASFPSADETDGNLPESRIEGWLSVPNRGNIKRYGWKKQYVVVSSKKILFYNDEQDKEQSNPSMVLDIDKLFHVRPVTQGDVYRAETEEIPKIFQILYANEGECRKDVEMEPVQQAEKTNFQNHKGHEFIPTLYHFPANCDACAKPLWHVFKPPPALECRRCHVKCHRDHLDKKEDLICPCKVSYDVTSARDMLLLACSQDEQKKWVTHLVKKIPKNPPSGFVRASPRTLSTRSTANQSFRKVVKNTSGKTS
Sequence of ROCK2 (O75116 whole entry, species assumed): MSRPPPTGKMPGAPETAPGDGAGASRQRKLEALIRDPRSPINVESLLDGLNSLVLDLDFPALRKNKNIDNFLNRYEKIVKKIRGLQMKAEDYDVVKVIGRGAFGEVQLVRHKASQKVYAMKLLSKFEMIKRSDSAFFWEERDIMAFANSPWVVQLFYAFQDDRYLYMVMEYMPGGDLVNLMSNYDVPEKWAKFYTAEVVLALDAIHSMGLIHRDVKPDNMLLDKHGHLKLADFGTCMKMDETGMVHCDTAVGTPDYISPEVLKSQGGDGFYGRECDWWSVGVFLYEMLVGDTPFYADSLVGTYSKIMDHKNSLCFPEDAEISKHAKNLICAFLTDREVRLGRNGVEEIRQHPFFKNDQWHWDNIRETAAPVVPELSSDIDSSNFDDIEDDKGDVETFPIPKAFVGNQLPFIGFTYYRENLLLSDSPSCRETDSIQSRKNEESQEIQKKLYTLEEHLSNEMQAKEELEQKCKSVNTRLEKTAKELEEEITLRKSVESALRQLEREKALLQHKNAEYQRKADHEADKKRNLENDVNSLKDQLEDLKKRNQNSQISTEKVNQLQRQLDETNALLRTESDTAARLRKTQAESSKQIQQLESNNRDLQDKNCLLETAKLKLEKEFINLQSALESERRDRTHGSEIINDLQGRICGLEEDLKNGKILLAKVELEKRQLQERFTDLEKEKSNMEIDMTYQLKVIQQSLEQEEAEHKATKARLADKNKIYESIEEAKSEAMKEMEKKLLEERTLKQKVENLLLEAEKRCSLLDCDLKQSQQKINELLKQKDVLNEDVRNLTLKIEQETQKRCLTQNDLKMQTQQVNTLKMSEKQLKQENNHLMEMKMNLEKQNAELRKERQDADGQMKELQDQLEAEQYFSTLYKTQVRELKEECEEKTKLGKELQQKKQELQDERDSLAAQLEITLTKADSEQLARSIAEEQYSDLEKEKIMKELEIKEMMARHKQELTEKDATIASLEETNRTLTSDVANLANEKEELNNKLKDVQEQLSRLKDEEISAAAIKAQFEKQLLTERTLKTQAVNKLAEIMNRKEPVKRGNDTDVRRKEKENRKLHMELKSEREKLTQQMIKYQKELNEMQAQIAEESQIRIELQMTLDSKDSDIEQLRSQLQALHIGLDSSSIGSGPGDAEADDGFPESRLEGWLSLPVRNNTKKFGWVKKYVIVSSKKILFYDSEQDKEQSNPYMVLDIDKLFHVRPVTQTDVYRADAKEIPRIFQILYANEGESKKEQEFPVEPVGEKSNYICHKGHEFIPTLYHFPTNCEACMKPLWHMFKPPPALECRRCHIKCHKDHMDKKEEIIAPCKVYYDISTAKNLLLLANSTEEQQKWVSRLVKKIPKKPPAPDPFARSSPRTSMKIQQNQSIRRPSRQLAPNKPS

SMILES | IC50 (ROCK2) | IC50 (ROCK1) | IC50 (MV411 cell line) | IC50 (K562 cell line) | FLT3-ITD+ Selectivity (K562/MV411) (MV411 cell line) | also measured
CN1CCn2nc(NC(=O)c3cccc(CNC(=O)c4ccc(-c5ccncc5)cc4)c3)cc2C1 [Compound 1] | 6 nM | 11.6 nM | 8900 nM | > 100000 nM | >11 | 
O=C(COc1cccc(CNC(=O)c2ccc(-c3ccncc3)cc2)c1)NC1CC1 [Compound 3] | 14.2 nM | 38.8 nM | 2400 nM | > 100000 nM | >42 | 
CC(C)NC(=O)c1cccc(CNC(=O)c2ccc(-c3ccncc3)cc2)c1 [Compound 5] | 6.7 nM | 21.7 nM | 1500 nM | > 100000 nM | >68 | 
O=C(NC1CCCC1)c1cccc([C@@H](CO)NC(=O)c2ccc(-c3ccncc3)cc2)c1 [Compound 10] | 0.87 nM | 4.8 nM | 170 nM | 17000 nM | 100 | AUC % Extrap ([1]; IV - 1 mg/kg): 0.39%; Cl/F obs ([1]; IV - 1 mg/kg): 2.83 mL/min/kg; R-sq ([1]; IV - 1 mg/kg): 0.90; AUC % Extrap ([1]; PO - 5 mg/kg): 0.09%; R-sq ([1]; PO - 5 mg/kg): 0.93; AUC(0-inf) ([1]; mouse, plasma, IV - 1 mg/kg): 5370 ng·h/mL; C0 ([1]; mouse, plasma, IV - 1 mg/kg): 7000 ng/mL; Cmax ([1]; mouse, plasma, IV - 1 mg/kg): 4180 ng/mL; Tmax ([1]; mouse, plasma, IV - 1 mg/kg): 0.25 h; half-life ([1]; mouse, plasma, IV - 1 mg/kg): 3.86 h; AUC(0-t) ([1]; mouse, plasma, IV - 1 mg/kg): 5350 ng·h/mL; Vd ([1]; mouse, plasma, IV - 1 mg/kg, read-out: Vss): 0.32 L/kg; AUC(0-inf) ([1]; mouse, plasma, PO - 5 mg/kg): 51500 ng·h/mL; CL/F ([1]; mouse, plasma, PO - 5 mg/kg): 1.5 mL/min/kg; Cmax ([1]; mouse, plasma, PO - 5 mg/kg): 13100 ng/mL; Tmax ([1]; mouse, plasma, PO - 5 mg/kg): 1 h; half-life ([1]; mouse, plasma, PO - 5 mg/kg): 2.32 h; bioavailability ([1]; mouse, plasma, PO - 5 mg/kg vs IV - 1 mg/kg): > 100%; AUC(0-t) ([1]; mouse, plasma, PO - 5 mg/kg): 51400 ng·h/mL; Vd/F ([1]; mouse, plasma, PO - 5 mg/kg, read-out: Vz/F obs): 0.3 L/kg
O=C(NC1CCCCC1)c1cccc([C@@H](CO)NC(=O)c2ccc(-c3ccncc3)cc2)c1 [Compound 26] | 1.5 nM | 3.7 nM | 7400 nM | 48000 nM | 6 | 
Cn1ccc2ccc(NC(=O)c3cccc([C@@H](CO)NC(=O)c4ccc(-c5ccncc5)cc4)c3)cc2c1=O [Compound 28] | 1.1 nM | 1.6 nM | 2400 nM | > 100000 nM | >42 | 
CN(C)Cc1ccc(CNC(=O)c2cccc([C@@H](CO)NC(=O)c3ccc(-c4ccncc4)cc3)c2)cc1 [Compound 32] | 0.9 nM | 1.4 nM | 60 nM | 37000 nM | 619 | 
COc1cc(-c2cn[nH]c2)ccc1C(=O)N[C@H](CO)c1cccc(C(=O)NC2CCCC2)c1 [Compound 81] | 0.88 nM | 3.2 nM | 120 nM | > 100000 nM | 833 | 
CN(C)Cc1cccc(CNC(=O)c2cccc([C@@H](CO)NC(=O)c3ccc(-c4cn[nH]c4)cc3)c2)c1 [Compound 82] | 0.65 nM | 2 nM | 610 nM | > 100000 nM | 166 | 
CCOc1cc(-c2cn[nH]c2)ccc1C(=O)N[C@H](C)c1cccc(C(=O)NC2CCCC2)c1 [Compound 103] | 0.52 nM | 1.51 nM | 140 nM | 8000 nM | 59 | 
COCCOc1cc(-c2cn[nH]c2)ccc1C(=O)N[C@H](C)c1cccc(C(=O)NC2CCCC2)c1 [Compound 115] | 1.02 nM | 3.91 nM | 240 nM | 45000 nM | 188 | 

More lines, main results first:

IC50 (ROCK2) | IC50 (ROCK1) | IC50 (MV411 cell line) | IC50 (K562 cell line) | SMILES | FLT3-ITD+ Selectivity (K562/MV411) (MV411 cell line) | also measured
1 nM | 3.1 nM | 2100 nM | 39000 nM | O=C(NCC1CCCCC1)c1cccc([C@@H](CO)NC(=O)c2ccc(-c3ccncc3)cc2)c1 [Compound 21] | 19 | 
1.2 nM | 2.2 nM | 1500 nM | 28000 nM | O=C(NCC1CCC(F)(F)CC1)c1cccc([C@@H](CO)NC(=O)c2ccc(-c3ccncc3)cc2)c1 [Compound 24] | 19 | 
4.1 nM | 14 nM | 140 nM | > 100000 nM | O=C(NC1CCCC1)c1cccc([C@@H](CO)NC(=O)c2cccc(-c3ccncc3)c2)c1 [Compound 63] | >721 | 
5.2 nM | 16.8 nM | 1490 nM | > 100000 nM | Cc1ccc(-c2ccncc2)cc1C(=O)N[C@H](CO)c1cccc(C(=O)NC2CCCC2)c1 [Compound 64] | >68 | 
0.9 nM | 3.84 nM | 310 nM | 85000 nM | CCc1ccc(-c2ccncc2)cc1C(=O)N[C@H](CO)c1cccc(C(=O)NC2CCCC2)c1 [Compound 70] | 275 | 
1.2 nM | 2.4 nM | 480 nM | 58000 nM | C[C@@H](NC(=O)c1ccc(-c2ccncc2)cc1)c1cccc(C(=O)NC2CC2)c1 [Compound 76] | 120 | 
0.94 nM | 2.1 nM | 20 nM | > 100000 nM | COC(=O)N1CCC(NC(=O)c2cccc([C@@H](CO)NC(=O)c3ccc(-c4ccncc4)cc3)c2)CC1 [Compound 77] | >5000 | 
0.57 nM | 1.7 nM | 30 nM | > 100000 nM | COC(=O)N1CCC(CNC(=O)c2cccc([C@@H](CO)NC(=O)c3ccc(-c4ccncc4)cc3)c2)CC1 [Compound 78] | >3333 | 
0.68 nM | 1.9 nM | 30 nM | > 100000 nM | O=C(NC1CCN(CC(F)(F)F)CC1)c1cccc([C@@H](CO)NC(=O)c2ccc(-c3ccncc3)cc2)c1 [Compound 79] | >3333 | 
8.7 nM | 9.9 nM | 1300 nM | 20000 nM | CN1CCc2ccc(NC(=O)c3cccc(CNC(=O)c4ccc(-c5ccncc5)cc4)c3)cc2C1 [Compound B, reference compound] | 15 | 
